Data from patent US7893046B2, “Therapeutic or prophylactic agent for leukemia” (Toray Industries, Inc., priority 2006, dated 2011).

Columns and labels:
Type in all cases: in vivo
[1] = test system: leukemia cells (1629B cells) in bone marrow; assay: Proliferation of leukemia cells in bone marrow in mouse leukemia model (PCR of neomycin resistance gene)
Method: Neomycin resistance gene, a marker gene for 1629B cells, was used as an index of leukemia cells (1629B cells) in bone marrow and the gene level was determined, thereby detecting the number of leukemia cells in bone marrow.
For the amplification of neomycin resistance gene, primers were prepared and PCR (reaction condition: 32 cycles of 95° C. for 30 sec, 60° C. for 30 sec, and 72° C. for 1 min) was performed using DNA extracted from bone marrow cells as a template. After the reaction, the image of PCR bands was analyzed using Gel-Pro Analyzer (MediaCybernetics).

[2] = test system: mouse leukemia cell line 1629B; assay: Mouse leukemia model, survival time and leukocytes in peripheral blood, dosing from Day 21 after transfer of 1629B cells; details: SCID mice, 100 mg/kg orally every day from Day 21 after transfer; for reduction ratio of increase in the number of leukocytes in peripheral blood: Day 35 after the transfer; for survival time prolonged to (Day after the transfer of leukemia cells): untreated mice died on Day 36
Method: This method was carried out in accordance with the literature “Cancer Cell., 4, 55-65 (2003)”.
Cells of mouse leukemia cell line 1629B were transferred into 8-week-old female SCID mice (CLEA Japan, Inc.) to develop leukemia. The compounds described in Examples 77, 78 and 84 were orally administered, respectively, at a dose of 100 mg/kg every day from Day 21 after the transfer of 1629B cells.

[3] = test system: mouse leukemia cell line 1629B; assay: Mouse leukemia model, survival rate and leukocytes in peripheral blood, dosing from the time of 1629B cell transfer; details: SCID mice, 100 mg/kg orally every day from 1629B transfer
Method: This method was carried out in accordance with the literature “Cancer Cell., 4, 55-65 (2003)”. Cells of mouse leukemia cell line 1629B were transferred into 8- or 9-week-old female SCID mice (CLEA Japan, Inc.) to develop leukemia. The compounds described in Examples 80, 81 and 83 were orally administered, respectively, at a dose of 100 mg/kg every day from the time when 1629B cells were transferred.

[4] = leukemia mice of Example 89 (100 mg/kg orally from Day 21 after transfer)
[5] = leukemia mice of Example 88 (100 mg/kg orally from the time of transfer)
[6] = Day 43 after the transfer of leukemia cells

Row | SMILES | reduction ratio of increase in the number of leukemia cells in bone marrow [1, 4] | reduction ratio of increase in the number of leukocytes in peripheral blood [2] | survival time prolonged to (Day after the transfer of leukemia cells) [2] | reduction ratio of increase in the number of leukemia cells in bone marrow [1, 5] | reduction ratio of increase in the number of leukocytes in peripheral blood ([3]; Day 43 after the transfer) | survival rate [3, 6] | reduction ratio of increase in the number of leukocytes in peripheral blood ([3]; Day 51 after the transfer) | survival rate ([3]; Day 51 after the transfer of leukemia cells)
1 | COC1(c2ccc(/C=C/C[C@H](NC(=O)c3c(Cl)cccc3Cl)C(=O)O)cc2)CCOCC1 [Example 77, (S,E)-2-(2,6-Dichlorobenzamido)-5-[4-(4-methoxytetrahydropyran-4-yl)-phenyl]pent-4-enoic Acid] | 49.3% | 41.2% | 43 days | – | – | – | – | –
2 | COC1(c2ccc(/C=C/C[C@H](NC(=O)c3c(Cl)cccc3Cl)C(=O)[O-])cc2)CCOCC1.[Na+] [Example 78, (S,E)-2-(2,6-Dichlorobenzamido)-5-[4-(4-methoxytetrahydropyran-4-yl)-phenyl]pent-4-enoic Acid Sodium Salt] | 41.7% | 41.0% | 43 days | – | – | – | – | –
3 | CN(c1ccc(/C=C/C[C@H](NC(=O)c2c(Cl)cccc2Cl)C(=O)O)cc1)c1ncccn1 [Example 80, (S,E)-2-(2,6-Dichlorobenzamido)-5-[4-(methyl-pyrimidin-2-ylamino)phenyl]pent-4-enoic Acid] | – | – | – | 45.9% | 61.6% | 75.0% | – | –
4 | CN(c1ccc(/C=C/C[C@H](NC(=O)c2c(Cl)cccc2Cl)C(=O)[O-])cc1)c1ncccn1.[Na+] [Example 81, (S,E)-2-(2,6-Dichlorobenzamido)-5-[4-(methyl-pyrimidin-2-ylamino)phenyl]pent-4-enoic Acid Sodium Salt] | – | – | – | 50.8% | – | – | 60.8% | 62.5%
5 | CC(C)N(c1ccc(/C=C/C[C@H](NC(=O)c2c(Cl)cccc2Cl)C(=O)O)cc1)c1ncccn1 [Example 83, (S,E)-2-(2,6-Dichlorobenzamido)-5-[4-(isopropyl-pyrimidin-2-ylamino)phenyl]pent-4-enoic Acid] | – | – | – | 46.1% | 53.1% | 75.0% | – | –
6 | CC(C)N(c1ccc(/C=C/C[C@H](NC(=O)c2c(Cl)cccc2Cl)C(=O)[O-])cc1)c1ncccn1.[Na+] [Example 84, (S,E)-2-(2,6-Dichlorobenzamido)-5-[4-(isopropyl-pyrimidin-2-ylamino)phenyl]pent-4-enoic Acid Sodium Salt] | 45.6% | 49.8% | 43 days | – | – | – | – | –
